Source: PubChem BioAssay (NCI)
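A five-concentration, 48-hour dose response in 96-well plates underlies each endpoint, interpolated linearly between surrounding concentrations. GI50: concentration for 50% inhibition of growth. TGI denotes the concentration required for complete inhibition of growth.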

Experiments:
Assay in all cases: inhibition of tumour cell growth, NCI panel, 48 h
[1] = system: 786-0 renal
[2] = system: A498 renal
[3] = system: A549 NSCLC
[4] = system: ACHN renal
[5] = system: BT-549 breast
[6] = system: CAKI-1 renal
[7] = system: CCRF-CEM leukemia
[8] = system: COLO 205 colon
[9] = system: DU-145 prostate
[10] = system: EKVX NSCLC
[11] = system: HCC-2998 colon
[12] = system: HCT-116 colon
[13] = system: HCT-15 colon
[14] = system: HL-60(TB) leukemia
[15] = system: HOP-62 NSCLC
[16] = system: HOP-92 NSCLC
[17] = system: HS 578T breast
[18] = system: HT29 colon
[19] = system: IGROV1 ovarian
[20] = system: KM12 colon
[21] = system: LOX IMVI melanoma
[22] = system: M14 melanoma
[23] = system: MALME-3M melanoma
[24] = system: MCF7 breast
[25] = system: MDA-MB-231 breast
[26] = system: MDA-MB-435
[27] = system: MOLT-4 leukemia
[28] = system: NCI-H226 lung
[29] = system: NCI-H23 lung
[30] = system: NCI-H460 lung
[31] = system: NCI-H522 lung
[32] = system: NCI/ADR-RES ovarian
[33] = system: OVCAR-3 ovarian
[34] = system: OVCAR-4 ovarian
[35] = system: OVCAR-5 ovarian
[36] = system: OVCAR-8 ovarian
[37] = system: PC-3 prostate
[38] = system: RPMI-8226 leukemia
[39] = system: RXF 393 renal
[40] = system: SF-268 CNS
[41] = system: SF-295 CNS
[42] = system: SF-539 CNS
[43] = system: SK-MEL-2 melanoma
[44] = system: SK-MEL-28 melanoma
[45] = system: SK-MEL-5 melanoma
[46] = system: SK-OV-3 ovarian
[47] = system: SN12C renal
[48] = system: SNB-19 CNS
[49] = system: SNB-75 CNS
[50] = system: SR leukemia
[51] = system: SW-620 colon
[52] = system: T-47D breast
[53] = system: TK-10 renal
[54] = system: U251 CNS
[55] = system: UACC-257 melanoma
[56] = system: UACC-62 melanoma
[57] = system: UO-31 renal
[58] = system: K-562 leukemia

Q: Which GI50 [1] does the source give for `FC(F)(F)c1ccc(NCc2nc3ccccc3[nH]2)cc1` here?
A: 30.7 µM

Q: And the TGI [1]?
A: > 100 µM

Q: And the GI50 [2]?
A: 12.4 µM

Q: What about the TGI [2] of the same compound?
A: 46.2 µM

Q: What about the GI50 [3] of the same compound?
A: 27.7 µM

Q: And the TGI [3]?
A: > 100 µM

Q: What about the GI50 [4] of the same compound?
A: 34.5 µM

Q: What about the TGI [4] of the same compound?
A: > 100 µM

Q: What about the GI50 [5] of the same compound?
A: 31.1 µM

Q: And the TGI [5]?
A: 97.5 µM

Q: And the GI50 [6]?
A: 19.4 µM

Q: And the TGI [6]?
A: 49.4 µM

Q: And the GI50 [7]?
A: 32.5 µM

Q: And the TGI [7]?
A: > 100 µM

Q: And the GI50 [8]?
A: 19.2 µM

Q: And the TGI [8]?
A: 34.3 µM

Q: What about the GI50 [9] of the same compound?
A: 47.9 µM

Q: What about the TGI [9] of the same compound?
A: > 100 µM

Q: What about the GI50 [10] of the same compound?
A: 26.8 µM

Q: And the TGI [10]?
A: > 100 µM

Q: What about the GI50 [11] of the same compound?
A: 23.8 µM

Q: And the TGI [11]?
A: 73.5 µM

Q: What about the GI50 [12] of the same compound?
A: 23 µM

Q: And the TGI [12]?
A: 68.7 µM

Q: And the GI50 [13]?
A: 32.7 µM

Q: What about the TGI [13] of the same compound?
A: > 100 µM

Q: And the GI50 [14]?
A: 12.1 µM

Q: What about the TGI [14] of the same compound?
A: 38.5 µM

Q: What about the GI50 [15] of the same compound?
A: 28.8 µM

Q: What about the TGI [15] of the same compound?
A: 96.4 µM

Q: What about the GI50 [16] of the same compound?
A: 12.9 µM

Q: What about the TGI [16] of the same compound?
A: 36.8 µM

Q: What about the GI50 [17] of the same compound?
A: 23.3 µM

Q: And the TGI [17]?
A: 79 µM

Q: What about the GI50 [18] of the same compound?
A: 27.9 µM

Q: And the TGI [18]?
A: 81.3 µM

Q: And the GI50 [19]?
A: 39.9 µM

Q: What about the TGI [19] of the same compound?
A: > 100 µM

Q: What about the GI50 [20] of the same compound?
A: 29.7 µM

Q: What about the TGI [20] of the same compound?
A: 87.7 µM

Q: And the GI50 [21]?
A: 23.2 µM

Q: What about the TGI [21] of the same compound?
A: > 100 µM

Q: What about the GI50 [22] of the same compound?
A: 24.7 µM

Q: What about the TGI [22] of the same compound?
A: > 100 µM

Q: And the GI50 [23]?
A: 23.9 µM

Q: What about the TGI [23] of the same compound?
A: 69.5 µM

Q: And the GI50 [24]?
A: 21.5 µM

Q: And the TGI [24]?
A: 53.2 µM

Q: What about the GI50 [25] of the same compound?
A: 22.8 µM

Q: What about the TGI [25] of the same compound?
A: 78.2 µM

Q: What about the GI50 [26] of the same compound?
A: 22.4 µM

Q: What about the TGI [26] of the same compound?
A: 74.6 µM

Q: What about the GI50 [27] of the same compound?
A: 21.6 µM

Q: What about the TGI [27] of the same compound?
A: 63 µM

Q: What about the GI50 [28] of the same compound?
A: 26.1 µM

Q: And the TGI [28]?
A: > 100 µM

Q: And the GI50 [29]?
A: 22.9 µM

Q: What about the TGI [29] of the same compound?
A: 80.2 µM

Q: And the GI50 [30]?
A: 19.5 µM

Q: And the TGI [30]?
A: 47.7 µM

Q: What about the GI50 [31] of the same compound?
A: 24.7 µM

Q: What about the TGI [31] of the same compound?
A: 95.3 µM

Q: What about the GI50 [32] of the same compound?
A: 21.9 µM

Q: And the TGI [32]?
A: 67.2 µM

Q: And the GI50 [33]?
A: 21.9 µM

Q: And the TGI [33]?
A: 62.2 µM

Q: What about the GI50 [34] of the same compound?
A: 27.1 µM

Q: And the TGI [34]?
A: > 100 µM

Q: And the GI50 [35]?
A: 27.8 µM

Q: And the TGI [35]?
A: 78.3 µM

Q: What about the GI50 [36] of the same compound?
A: 27.5 µM

Q: What about the TGI [36] of the same compound?
A: > 100 µM

Q: What about the GI50 [37] of the same compound?
A: 18.8 µM

Q: What about the TGI [37] of the same compound?
A: 75.8 µM

Q: What about the GI50 [38] of the same compound?
A: 20.7 µM

Q: What about the TGI [38] of the same compound?
A: 67.8 µM

Q: And the GI50 [39]?
A: 24.4 µM

Q: And the TGI [39]?
A: 81.9 µM

Q: And the GI50 [40]?
A: 40.8 µM

Q: What about the TGI [40] of the same compound?
A: > 100 µM

Q: What about the GI50 [41] of the same compound?
A: 18.7 µM

Q: And the TGI [41]?
A: 65.8 µM

Q: And the GI50 [42]?
A: 36.8 µM

Q: What about the TGI [42] of the same compound?
A: > 100 µM

Q: What about the GI50 [43] of the same compound?
A: 20.7 µM

Q: What about the TGI [43] of the same compound?
A: 42.1 µM

Q: And the GI50 [44]?
A: 27.9 µM

Q: What about the TGI [44] of the same compound?
A: > 100 µM

Q: What about the GI50 [45] of the same compound?
A: 15.6 µM

Q: What about the TGI [45] of the same compound?
A: 30 µM

Q: And the GI50 [46]?
A: 45.5 µM

Q: What about the TGI [46] of the same compound?
A: > 100 µM

Q: And the GI50 [47]?
A: 29.7 µM

Q: And the TGI [47]?
A: > 100 µM

Q: What about the GI50 [48] of the same compound?
A: 34.3 µM

Q: And the TGI [48]?
A: > 100 µM

Q: And the GI50 [49]?
A: 23 µM

Q: And the TGI [49]?
A: > 100 µM

Q: And the GI50 [50]?
A: 28.3 µM

Q: What about the TGI [50] of the same compound?
A: > 100 µM

Q: And the GI50 [51]?
A: 35.7 µM

Q: What about the TGI [51] of the same compound?
A: > 100 µM

Q: And the GI50 [52]?
A: 26.5 µM

Q: And the TGI [52]?
A: 80.6 µM

Q: What about the GI50 [53] of the same compound?
A: 38.2 µM

Q: And the TGI [53]?
A: > 100 µM

Q: And the GI50 [54]?
A: 27.5 µM

Q: And the TGI [54]?
A: > 100 µM

Q: And the GI50 [55]?
A: 23.5 µM

Q: And the TGI [55]?
A: 67.9 µM

Q: What about the GI50 [56] of the same compound?
A: 18.7 µM

Q: What about the TGI [56] of the same compound?
A: 56.5 µM

Q: And the GI50 [57]?
A: 30.4 µM

Q: And the TGI [57]?
A: > 100 µM

Q: For `N=c1oc2ccccc2cc1C(=O)Nc1nccs1`, which TGI [1] is on record?
A: 6.3 µM

Q: And the TGI [2]?
A: > 100 µM

Q: And the TGI [3]?
A: > 100 µM

Q: And the TGI [4]?
A: 26.8 µM

Q: And the TGI [5]?
A: > 100 µM

Q: And the TGI [6]?
A: > 88.1 µM

Q: And the TGI [7]?
A: 20 µM

Q: What about the TGI [8] of the same compound?
A: 45.6 µM

Q: And the TGI [9]?
A: > 79.4 µM

Q: And the TGI [10]?
A: > 79.5 µM

Q: And the TGI [11]?
A: > 100 µM

Q: And the TGI [12]?
A: > 100 µM

Q: And the TGI [13]?
A: > 100 µM

Q: What about the TGI [14] of the same compound?
A: 5.92 µM

Q: And the TGI [15]?
A: 64.7 µM

Q: And the TGI [16]?
A: > 100 µM

Q: What about the TGI [17] of the same compound?
A: > 100 µM

Q: What about the TGI [18] of the same compound?
A: > 100 µM

Q: And the TGI [19]?
A: > 49.2 µM

Q: What about the TGI [58] of the same compound?
A: > 100 µM

Q: What about the TGI [20] of the same compound?
A: > 100 µM

Q: And the TGI [21]?
A: 7.71 µM

Q: What about the TGI [22] of the same compound?
A: > 100 µM

Q: And the TGI [23]?
A: > 100 µM

Q: And the TGI [24]?
A: > 100 µM

Q: What about the TGI [25] of the same compound?
A: > 86.3 µM

Q: And the TGI [26]?
A: > 100 µM

Q: What about the TGI [27] of the same compound?
A: 22.1 µM

Q: What about the TGI [28] of the same compound?
A: > 92.3 µM

Q: And the TGI [29]?
A: > 100 µM

Q: What about the TGI [30] of the same compound?
A: > 76.5 µM

Q: And the TGI [31]?
A: 3.82 µM

Q: And the TGI [32]?
A: > 100 µM

Q: What about the TGI [33] of the same compound?
A: 43.3 µM

Q: What about the TGI [34] of the same compound?
A: > 74.2 µM

Q: And the TGI [35]?
A: > 100 µM

Q: What about the TGI [36] of the same compound?
A: > 92.4 µM

Q: What about the TGI [37] of the same compound?
A: > 100 µM

Q: What about the TGI [38] of the same compound?
A: 50.5 µM

Q: What about the TGI [39] of the same compound?
A: > 83.9 µM

Q: What about the TGI [40] of the same compound?
A: > 100 µM

Q: And the TGI [41]?
A: > 100 µM

Q: And the TGI [43]?
A: 65.4 µM

Q: What about the TGI [44] of the same compound?
A: > 100 µM

Q: What about the TGI [45] of the same compound?
A: > 100 µM

Q: And the TGI [46]?
A: > 83.4 µM

Q: What about the TGI [47] of the same compound?
A: > 100 µM

Q: What about the TGI [48] of the same compound?
A: > 100 µM

Q: What about the TGI [49] of the same compound?
A: 99 µM

Q: And the TGI [50]?
A: 47.7 µM

Q: And the TGI [51]?
A: > 100 µM

Q: And the TGI [52]?
A: > 84 µM

Q: What about the TGI [53] of the same compound?
A: > 50.7 µM

Q: And the TGI [54]?
A: > 100 µM

Q: And the TGI [55]?
A: > 95.3 µM

Q: And the TGI [56]?
A: > 100 µM

Q: What about the TGI [57] of the same compound?
A: 0.22 µM
